The values that follow come from patent publication US8895503B2, “Pharmaceutical composition for transnasal administration of peptide hormones or cytokines” (Toray Industries, Inc., priority 2008, dated 2014).

Where no end group is shown, it is not given here.

Data set [1] is described as follows: Nasal administration of insulin with peptides of SEQ ID NOs:1 to 6 (Example 5). Particulars: for AAC: blood glucose reduction. From the text:
The prepared solutions were subjected to the evaluation in the same manner as in Example 1.

Data set [2] can be described thus: Nasal administration of insulin, dependency on peptide concentration (Example 2). Particulars: rats, only insulin, no peptide.
Description: (§1) Male SD rats having a body weight of about 200 g were fasted for 24 hours and anesthetized by intraperitoneal injection of 50 mg/kg of pentobarbital, followed by incision of the cervical part to expose trachea. […] The tip of the tube to be inserted into the choanae was preliminarily tightly sealed with absorbent cotton and an adhesive. To prevent leakage of the drug solution, the nasopalatine duct in maxilla opening into the oral cavity was closed with a synthetic adhesive (Aron Alpha A; manufactured by Daiichi Sankyo Company, Limited).
A short description of data set [3]: Nasal administration of insulin with peptide to rats (Example 1). The settings on record: male SD rats, insulin 10 IU/kg with 0.5 mM peptide or insulin only. Type of data set: in vivo, rat.
Description: as §1
Setting [4] is: rats, nasal, insulin 1 IU/kg with 0.5 mM L-amino acid peptide or no peptide.
Where [5] appears, read: blood insulin, rats, nasal, insulin 1 IU/kg with 0.5 mM L-amino acid peptide or no peptide.
[6] abbreviates: male, SD, rat, in vivo, inhaled or intranasal.

In the case of `CC[C@H](C)[C@H](NC(=O)[C@H](CCCCN)NC(=O)[C@@H](NC(=O)[C@H](CCC(N)=O)NC(=O)[C@@H](N)CCCNC(=N)N)[C@@H](C)CC)C(=O)N[C@@H](Cc1c[nH]c2ccccc12)C(=O)N[C@@H](Cc1ccccc1)C(=O)N[C@@H](CCC(N)=O)C(=O)N[C@@H](CC(N)=O)C(=O)N[C@@H](CCCNC(=N)N)C(=O)N[C@@H](CCCNC(=N)N)C(=O)N[C@@H](CCSC)C(=O)N[C@@H](CCCCN)C(=O)N[C@@H](Cc1c[nH]c2ccccc12)C(=O)N[C@@H](CCCCN)C(=O)N[C@@H](CCCCN)C(=O)N[C@@H](CCCNC(=N)N)C(=O)N[C@@H](CCCNC(=N)N)C(=O)N[C@@H](CCCNC(=N)N)C(=O)N[C@@H](CCCNC(=N)N)C(=O)O` [SEQ ID NO: 6], in data set [1] (setting [4]), the AAC was determined as 14.4 % glu. reduc. h and the “PA (pharmaceutical availability, based on changes in blood glucose level)” value is listed as 15.7%. In data set [1] (setting [5]), this compound displayed an AUC of 55.2 μU · h./mL and a Cmax of 187.3 μU/mL.

For the compound KKWKMRRNQFWIKIQR-OH [SEQ ID NO: 2], in data set [1] (setting [4]), the AAC was found to be 13.5 % glu. reduc. h and the “PA (pharmaceutical availability, based on changes in blood glucose level)” value was found to be 14.7%. In data set [1] (setting [6]), the Tmax worked out at 11.7 min.

In the case of KQIKIWFQNKKMKWKK-OH [SEQ ID NO: 4], in data set [1] (setting [4]), the AAC is 10.3 % glu. reduc. h and the “PA (pharmaceutical availability, based on changes in blood glucose level)” value is on record as 11.2%. Moreover, the Tmax in data set [1] (setting [6]) was 11.3 min.

For KQIRIWFQNKKMRWRR-OH [SEQ ID NO: 5], in data set [1] (setting [4]), the AAC amounted to 21.5 % glu. reduc. h and the “PA (pharmaceutical availability, based on changes in blood glucose level)” value came out at 23.4%. In data set [1] (setting [6]), the Tmax is given as 16.0 min.

For RQIRIWFQNRRMRWRR-OH [SEQ ID NO: 3], in data set [1] (setting [4]), the AAC is 17.1 % glu. reduc. h and the “PA (pharmaceutical availability, based on changes in blood glucose level)” value was found to be 18.6%. For the same compound, the Tmax in data set [1] (setting [6]) was 18.3 min.

Compound insulin [reference compound] registered a bioavailability of insulin in data set [2] of 1.7%. Besides, in data set [1] (setting [4]), the AAC stood at 4.3 % glu. reduc. h; the “BA (bioavailability, based on changes in blood insulin level)” value turned out to be 2.3%; the “PA (pharmaceutical availability, based on changes in blood glucose level)” value turned out to be 4.7%; the “increase in the blood insulin level (FIG. 8)” value is “could be hardly observed”. Besides, in data set [1] (setting [5]), the AUC is given as 6.4 μU · h./mL and the Tmax came out at 10.8 min. Further, the “blood insulin level (FIG. 1)” value in data set [3] was “hardly exhibited increase in the blood insulin level”. Besides, in data set [3] (vs subcutaneous insulin), the “bioavailability (BA) of insulin” value was determined as 0.8%.
